Earlier results as cited in US8003118B2 (priority 2005, dated 2011).

solubility in water: practically insoluble
SMILES: CO[C@H]1/C=C/O[C@@]2(C)Oc3c(C)c(O)c4c(O)c(c5c(nc6cc(C)ccn65)c4c3C2=O)NC(=O)/C(C)=C\C=C\[C@H](C)[C@H](O)[C@@H](C)[C@@H](O)[C@@H](C)[C@H](OC(C)=O)[C@@H]1C [rifaximin, (2S,16Z,18E,20S,21S,22R,23R,24R,25S,26S,27S,28E)-5,6,21,23,25-pentahydroxy-27-methoxy-2,4,11,16,20,22,24,26-octamethyl-2,7-(epoxypentadeca-[1,11,13]trienimino)benzofuro[4,5-e]pyrido[1,2-α]-benzimidazole-1,15(2H)-dione,25-acetate]
